Test results: US10357481B2 (MERCK SHARP & DOHME CORP., priority 2015, dated 2019)

Target: T1, human PDE2A1 (Homo sapiens, UniProt O00408)
T1 construct: GST; purchased BPS Bioscience (San Diego, Calif.) 60020; host or cells: insect cells
Assay: IMAP FP PDE selectivity panel, human PDE2A1
Type: biochemical
Conditions: Lab B; read-out: Human PDE2 Ki (nM) Lab B
Procedure, shortened: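 IMAP FP read-out, run at room temperature in parallel with PDE1–11: enzyme at 20% substrate conversion, 50 nM FAM-cAMP containing 1000 nM cGMP, Tris pH 7.2/MgCl2/DTT buffer. Compounds as ten 3-fold dilutions. Reaction 60 min, stopped with binding reagent for 1 h before polarization measurement.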

T1 sequence (O00408 1-920 isoform O00408-2): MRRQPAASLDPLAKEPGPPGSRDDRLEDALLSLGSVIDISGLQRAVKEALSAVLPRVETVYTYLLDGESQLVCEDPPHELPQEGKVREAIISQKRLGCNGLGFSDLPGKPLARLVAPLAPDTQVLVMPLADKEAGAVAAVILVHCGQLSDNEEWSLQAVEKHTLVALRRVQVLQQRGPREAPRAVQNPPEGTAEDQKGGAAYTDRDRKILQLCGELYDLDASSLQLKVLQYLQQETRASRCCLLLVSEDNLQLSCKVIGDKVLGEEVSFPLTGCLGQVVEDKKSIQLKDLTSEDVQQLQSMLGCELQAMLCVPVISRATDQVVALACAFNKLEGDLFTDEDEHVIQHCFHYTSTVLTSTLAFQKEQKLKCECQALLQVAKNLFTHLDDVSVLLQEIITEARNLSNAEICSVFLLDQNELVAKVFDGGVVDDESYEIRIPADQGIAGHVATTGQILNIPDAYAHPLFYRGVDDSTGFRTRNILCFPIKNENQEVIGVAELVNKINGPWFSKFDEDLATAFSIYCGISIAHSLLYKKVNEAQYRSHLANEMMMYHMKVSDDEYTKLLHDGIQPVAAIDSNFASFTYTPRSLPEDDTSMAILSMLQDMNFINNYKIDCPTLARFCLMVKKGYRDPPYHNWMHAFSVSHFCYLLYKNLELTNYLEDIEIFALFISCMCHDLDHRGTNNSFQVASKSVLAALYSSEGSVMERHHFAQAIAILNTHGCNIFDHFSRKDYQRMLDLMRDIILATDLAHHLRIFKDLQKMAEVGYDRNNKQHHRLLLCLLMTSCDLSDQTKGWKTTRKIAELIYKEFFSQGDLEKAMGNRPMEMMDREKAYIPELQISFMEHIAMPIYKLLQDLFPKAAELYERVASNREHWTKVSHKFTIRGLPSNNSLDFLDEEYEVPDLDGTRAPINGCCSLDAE

Structure (SMILES)	Ki [nM]
Cc1nc2ncnn2c(NC2(c3ccc(C(F)(F)F)c(F)c3)CC2)c1C [Example 87, N-{1-[3-Fluoro-4-(trifluoromethyl)phenyl]cyclopropyl}-5,6-dimethyl[1,2,4]triazolo[1,5-a]pyrimidin-7-amine]	132
Cc1cc(NC(CO)c2ccc(C(F)(F)F)cc2)n2ncnc2n1 (stereo not shown) [Example 88, 2-[(5-Methyl[1,2,4]triazolo[1,5-a]pyrimidin-7-yl)amino]-2-[4-(trifluoromethyl)phenyl]ethanol]	736
Cc1cc(N[C@@H](c2ccc(C(F)(F)F)cc2)[C@@H](C)O)n2ncnc2n1 [Example 89, (1S,2R)-1-[(5-Methyl[1,2,4]triazolo[1,5-a]pyrimidin-7-yl)amino]-1-[4-(trifluoromethyl)phenyl]propan-2-ol]	82
Cc1cc(N[C@@H](c2ccc(C(F)(F)F)cc2)[C@H](C)O)n2ncnc2n1 [Example 90, (1S,2S)-1-[(5-Methyl[1,2,4]triazolo[1,5-a]pyrimidin-7-yl)amino]-1-[4-(trifluoromethyl)phenyl]propan-2-ol]	~1790
Cc1cc(N[C@H](c2ccc(C(F)(F)F)c(F)c2)C(C)(C)O)n2ncnc2n1 [Example 99, (1R)-1-[3-Fluoro-4-(trifluoromethyl)phenyl]-2-methyl-1-[(5-methyl [1,2,4]triazolo[1,5-a]pyrimidin-7-yl)amino]propan-2-ol]	555
Cc1cc(N[C@H](CC(C)(C)O)c2ccc(C(F)(F)F)c(F)c2)n2ncnc2n1 [Example 152, (4R)-4-[3-Fluoro-4-(trifluoromethyl)phenyl]-2-methyl-4-[(5-methyl[1,2,4]triazolo[1,5-a]pyrimidin-7-yl)amino]butan-2-ol]	766
Cc1cc(N[C@@H](CC(C)(C)O)c2ccc(C(F)(F)F)c(F)c2)n2ncnc2n1 [Example 153, (4S)-4-[3-Fluoro-4-(trifluoromethyl)phenyl]-2-methyl-4-[(5-methyl[1,2,4]triazolo[1,5-a]pyrimidin-7-yl)amino]butan-2-ol]	> 2960
Cc1cc(N[C@](C)(c2ccc(OC(F)(F)F)cc2)C(C)(C)O)n2ncnc2n1 [Example 154, (3R)-2-Methyl-3-[(5-methyl[1,2,4]triazolo[1,5-a]pyrimidin-7-yl)amino]-3-[4-(trifluoromethoxy)phenyl]butan-2-ol]	> 2960
Cc1cc(N[C@@](C)(c2ccc(OC(F)(F)F)cc2)C(C)(C)O)n2ncnc2n1 [Example 155, (3S)-2-Methyl-3-[(5-methyl[1,2,4]triazolo[1,5-a]pyrimidin-7-yl)amino]-3-[4-(trifluoromethoxy)phenyl]butan-2-ol]	525
Cc1cc(N[C@@H](c2ccc(C(F)(F)F)c(F)c2)C(C)(C)C)n2nc(CF)nc2n1 [Example 191, 2-(Fluoromethyl)-N-{(1R)-1-[3-fluoro-4-(trifluoromethyl)phenyl]-2,2-dimethylpropyl}-5-methyl[1,2,4]triazolo[1,5-a]pyrimidin-7-amine]	67
Cc1cc(NC2(c3ccc(C(F)(F)F)c(F)c3)CC2)n2nc(C)nc2n1 [Example 192, N-(1-(3-Fluoro-4-(trifluoromethyl)phenyl)cyclopropyl)-2,5-dimethyl-[1,2,4]triazolo [1,5-a]pyrimidin-7-amine]	91
CCc1nc2nc(C)cc(NC3(c4ccc(C(F)(F)F)c(F)c4)CC3)n2n1 [Example 193, 2-Ethyl-N-(1-(3-fluoro-4-(trifluoromethyl)phenyl)cyclopropyl)-5-methyl-[1,2,4]triazolo [1,5-a]pyrimidin-7-amine]	142
CCCc1nc2nc(C)cc(NC3(c4ccc(C(F)(F)F)c(F)c4)CC3)n2n1 [Example 194, N-(1-(3-Fluoro-4-(trifluoromethyl)phenyl)cyclopropyl)-5-methyl-2-propyl-[1,2,4]triazolo [1,5-a]pyrimidin-7-amine]	113
Cc1cc(NC2(c3ccc(C(F)(F)F)c(F)c3)CC2)n2nc(C3CC3)nc2n1 [Example 195, 2-Cyclopropyl-N-(1-(3-fluoro-4-(trifluoromethyl)phenyl)cyclopropyl)-5-methyl-[1,2,4]triazolo [1,5-a]pyrimidin-7-amine]	144

Further lines, results first:

Ki [nM]	Structure (SMILES)
742	Cc1cc(N[C@@H](c2ccc(OC(F)(F)F)cc2F)C(C)(C)O)n2ncnc2n1 [Example 93, (1S)-1-[2-Fluoro-4-(trifluoromethoxy)phenyl]-2-methyl-[(5-methyl-[1,2,4]triazolo[1,5-a]pyrimidin-7-yl)amino]propan-2-ol]
17	Cc1cc(N[C@@H](c2ccc(C(F)(F)F)cc2)C(C)(C)O)n2ncnc2n1 [Example 94, (1S)-2-Methyl-1-[(5-methyl [1,2,4]triazolo[1,5-a]pyrimidin-7-yl)amino]-1-[4-(trifluoromethyl)phenyl]propan-2-ol]
> 2960	Cc1cc(N[C@H](c2ccc(C(F)(F)F)cc2)C(C)(C)O)n2ncnc2n1 [Example 95, (1R)-2-Methyl-1-[(5-methyl [1,2,4]triazolo[1,5-a]pyrimidin-7-yl)amino]-1-[4-(trifluoromethyl)phenyl]propan-2-ol]
15	Cc1cc(N[C@@H](c2ccc(OC(F)(F)F)cc2)C(C)(C)O)n2ncnc2n1 [Example 96, (1S)-2-Methyl-1-[(5-methyl [1,2,4]triazolo[1,5-a]pyrimidin-7-yl)amino]-1-[4-(trifluoromethoxy)phenyl]propan-2-ol]
> 2960	Cc1cc(N[C@H](c2ccc(OC(F)(F)F)cc2)C(C)(C)O)n2ncnc2n1 [Example 97, (1R)-2-Methyl-1-[(5-methyl [1,2,4]triazolo[1,5-a]pyrimidin-7-yl)amino]-1-[4-(trifluoromethoxy)phenyl]propan-2-ol]
4.3	Cc1cc(N[C@@H](c2ccc(OC(F)(F)F)cc2Cl)C(C)(C)O)n2ncnc2n1 [Example 100, (1S)-1-[2-Chloro-4-(trifluoromethoxy)phenyl]-2-methyl-1-[(5-methyl[1,2,4]triazolo[1,5-a]pyrimidin-7-yl)amino]propan-2-ol]
27	Cc1cc(N[C@H](c2ccc(OC(F)(F)F)cc2Cl)C(C)(C)O)n2ncnc2n1 [Example 101, (1R)-1-[2-Chloro-4-(trifluoromethoxy)phenyl]-2-methyl-1-[(5-methyl[1,2,4]triazolo[1,5-a]pyrimidin-7-yl)amino]propan-2-ol]
14	Cc1cc(N[C@@H](c2ccc(OC(F)(F)F)c(Cl)c2)C(C)(C)O)n2ncnc2n1 [Example 102, (1S)-1-[3-Chloro-4-(trifluoromethoxy)phenyl]-2-methyl-1-[(5-methyl[1,2,4]triazolo[1,5-a]pyrimidin-7-yl)amino]propan-2-ol]
34	Cc1cc(N[C@H](c2ccc(OC(F)(F)F)c(Cl)c2)C(C)(C)O)n2ncnc2n1 [Example 103, (1R)-1-[3-Chloro-4-(trifluoromethoxy)phenyl]-2-methyl-1-[(5-methyl[1,2,4]triazolo[1,5-a]pyrimidin-7-yl)amino]propan-2-ol]
2290	Cc1cc(N[C@@H](c2ccc(F)c(OC(F)(F)F)c2)C(C)(C)O)n2ncnc2n1 [Example 130, (1S)-1-[4-Fluoro-3-(trifluoro-methoxy)phenyl]-2-methyl-1-[(5-methyl[1,2,4]triazolo[1,5-a]pyrimidin-7-yl)amino]propan-2-ol]
> 2960	Cc1cc(N[C@H](c2ccc(F)c(OC(F)(F)F)c2)C(C)(C)O)n2ncnc2n1 [Example 131, (1R)-1-[4-Fluoro-3-(trifluoro-methoxy)phenyl]-2-methyl-1-[(5-methyl[1,2,4]triazolo[1,5-a]pyrimidin-7-yl)amino]propan-2-ol]
